{
  "source": "patent US7521444B2",
  "about": "“Compounds for the treatment of hepatitis C” (Bristol-Myers Squibb Company, priority 2007, dated 2009)",
  "key": {"HCV NS5B": {"molecular_target": "T1, HCV NS5B (Hepatitis C virus genotype 1b, UniProt Q9WMX2)", "T1 construct": "The protein was expressed with an 18 amino acid C-terminal truncation to enhance the solubility; made in house; host or cells: E. coli BL21(DE3), pET21a", "T1 sequence (Q9WMX2 2420-2992)": "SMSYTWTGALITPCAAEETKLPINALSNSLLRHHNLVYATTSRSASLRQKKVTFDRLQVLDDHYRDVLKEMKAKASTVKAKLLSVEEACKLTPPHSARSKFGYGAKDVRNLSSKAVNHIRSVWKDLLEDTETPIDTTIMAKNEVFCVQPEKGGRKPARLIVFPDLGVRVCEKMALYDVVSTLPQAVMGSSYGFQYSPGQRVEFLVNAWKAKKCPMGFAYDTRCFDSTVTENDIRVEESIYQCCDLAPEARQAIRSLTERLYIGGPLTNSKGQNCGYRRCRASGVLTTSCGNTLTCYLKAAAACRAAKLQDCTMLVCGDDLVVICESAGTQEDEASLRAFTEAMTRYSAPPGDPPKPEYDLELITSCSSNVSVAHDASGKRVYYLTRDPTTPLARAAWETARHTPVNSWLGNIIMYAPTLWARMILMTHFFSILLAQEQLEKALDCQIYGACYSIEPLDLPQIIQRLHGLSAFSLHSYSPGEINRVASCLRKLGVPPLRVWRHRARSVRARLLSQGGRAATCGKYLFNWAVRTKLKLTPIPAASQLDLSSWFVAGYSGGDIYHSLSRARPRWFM", "test": "HCV NS5B RdRp enzyme assay (standard or modified)", "format": "biochemical", "conditions": "HCV NS5B RdRp genotype 1b enzyme; standard or modified assay not stated", "protocol": "HCV NS5B RdRp cloning, expression, and purification. The cDNA encoding the NS5B protein of HCV, genotype 1b, was cloned into the pET21a expression vector. The protein was expressed with an 18 amino acid C-terminal truncation to enhance the solubility. The E. coli competent cell line BL21(DE3) was used for expression of the protein. Cultures were grown at 37° C. for ˜4 hours until the cultures reached an optical density of 2.0 at 600 nm. The cultures were cooled to 20° C. and induced with 1 mM IPTG. Fresh ampicillin was added to a final concentration of 50 μg/ml and the cells were grown overnight at 20° C.\nCell pellets (3 L) were lysed for purification to yield 15-24 mgs of purified NS5B. The lysis buffer consisted of 20 mM Tris-HCl, pH 7.4, 500 mM NaCl, 0.5% triton X-100, 1 mM DTT, 1 mM EDTA, 20% glycerol, 0.5 mg/ml lysozyme, 10 mM MgCl2, 15 ug/ml deoxyribonuclease I, and Complete TM protease inhibitor tablets (Roche). After addition of the lysis buffer, frozen cell pellets were resuspended using a tissue homogenizer. To reduce the viscosity of the sample, aliquots of the lysate were sonicated on ice using a microtip attached to a Branson sonicator. The sonicated lysate was centrifuged at 100,000×g for 1 hr at 4° C. and filtered through a 0.2 μm filter unit (Corning).\nThe protein was purified using two sequential chromatography steps: Heparin sepharose CL-6B and polyU sepharose 4B (Pharmacia). The chromatography buffers were identical to the lysis buffer but contained no lysozyme, deoxyribonuclease I, MgCl2 or protease inhibitor and the NaCl concentration of the buffer was adjusted according to the requirements for charging the protein onto the column. Each column was eluted with a NaCl gradient which varied in length from 5-50 column volumes depending on the column type. After the final chromatography step, the resulting purity of the enzyme is >90% based on SDS-PAGE analysis. The enzyme was aliquoted and stored at −80° C.\nStandard HCV NS5B RdRp enzyme assay. HCV RdRp genotype 1b assays were run in a final volume of 60 μl in 96 well plates (Corning 3600). The assay buffer is composed of 20 mM Hepes, pH 7.5, 2.5 mM KCl, 2.5 mM MgCl2, 1 mM DTT, 1.6 U RNAse inhibitor (Promega N2515), 0.01 mg/ml BSA (Sigma B6917), and 2% glycerol. All compounds were serially diluted (3-fold) in DMSO and diluted further in water such that the final concentration of DMSO in the assay was 2%. HCV RdRp genotype 1b enzyme was used at a final concentration of 28 nM. A polyA template was used at 6 nM, and a biotinylated oligo-dT12 primer was used at 180 nM final concentration. Template was obtained commercially (Amersham 27-4110). Biotinylated primer was prepared by Sigma Genosys. 3H-UTP was used at 0.6 μCi (0.29 μM total UTP). Reactions were initiated by the addition of enzyme, incubated at 30° C. for 60 min, and stopped by adding 25 μl of 50 mM EDTA containing SPA beads (4 μg/μl, Amersham RPNQ 0007). Plates were read on a Packard Top Count NXT after >1 hr incubation at room temperature.\nModified HCV NS5B RdRp enzyme assay. A modified enzyme assay was performed essentially as described for the standard enzyme assay except for the following: The biotinylated oligo dT12 primer was precaptured on streptavidin-coated SPA beads by mixing primer and beads in assay buffer and incubating at room temperature for one hour. Unbound primer was removed after centrifugation. The primer-bound beads were resuspended in 20 mM Hepes buffer, pH 7.5 and used in the assay at final concentrations of 20 nM primer and 0.67 μg/μl beads. Order of addition in the assay: enzyme (1.75 nM) was added to diluted compound followed by the addition of a mixture of template (0.36 nM), 3H-UTP (0.6 μCi, 0.29 μM), and primer-bound beads, to initiate the reaction; concentrations given are final. Reactions were allowed to proceed for 4 hours at 30° C.\nIC50 values for compounds were determined using seven different [I]. […]"}, "HCV replicon cells": {"system": "HCV replicon cells", "test": "HCV replicon FRET / luciferase assay", "format": "cell-based", "conditions": "50% reduction in FRET or luciferase activity", "protocol": "FRET Assay Preparation. The HCV FRET screening assay was performed in 96-well cell culture plates. The FRET peptide (Anaspec, Inc.) (Taliani et al., Anal. Biochem. 1996, 240, 60-67) contains a fluorescence donor, EDANS, near one end of the peptide and an acceptor, DABCYL, near the other end. The fluorescence of the peptide is quenched by […] resonance energy transfer (RET) between the donor and the acceptor, but as the NS3 protease cleaves the peptide the products are released from RET quenching and the fluorescence of the donor becomes apparent. The assay reagent was made as follows: 5× cell Luciferase cell culture lysis reagent from Promega (#E153A) diluted to 1× with dH2O, NaCl added to 150 mM final, the FRET peptide diluted to 20 μM final from a 2 mM stock.\nTo prepare plates, HCV replicon cells, with or without a Renilla luciferase reporter gene, were trypsinized and plated in a 96-well plate with titrated test compounds added in columns 3 through 12; columns 1 and 2 contained a control compound (HCV control inhibitor), and the bottom row contained cells with DMSO only. The plates were then placed in a CO2 incubator at 37° C.\nAssays. Subsequent to addition of the test compounds described above (FRET Assay Preparation), at various times the plate was removed and Alamar blue solution (Trek Diagnostics, #00-100) was added to measure cellular toxicity. After reading in a Cytoflour 4000 instrument (PE Biosystems), plates were rinsed with PBS and then used for FRET assay by the addition of 30 ul of the FRET peptide assay reagent described above (FRET Assay Preparation) per well. The plate was then placed into the Cytoflour 4000 instrument which had been set to 340 excite/490 emission, automatic mode for up to 20 cycles and the plate read in a kinetic mode. Typically, the signal to noise using an endpoint analysis after the reads was at least three-fold. Alternatively, after Alamar blue reading, plates were rinsed with PBS, then used for luciferase assay using the Promega Dual-Glo Luciferase Assay System or the Promega EnduRen Live Cell Substrate assay.\nCompound analysis was performed by quantification of the relative HCV replicon inhibition and the relative cytotoxicity values. To calculate cytoxicity values, the average Alamar Blue fluorescence signals from the control wells were set as 100% non-toxic. The individual signals in each of the compound test wells were then divided by the average control signal and multiplied by 100% to determine […]. To calculate the HCV replicon inhibition values, an average background value was obtained from the two wells containing the highest amount of HCV control inhibitor at the end of the assay period. These numbers were similar to those obtained from naïve Huh-7 cells. The background numbers were then subtracted from the average signal obtained from the control wells and this number was used as 100% activity. The individual signals in each of the compound test wells were then divided by the averaged control values after background subtraction and multiplied by 100% to determine percent activity. EC50 values were calculated as the concentration which caused a 50% reduction in FRET or luciferase activity. The two numbers generated for the compound plate, percent cytoxicity and percent activity, were used to determine compounds of interest for further analysis."}},
  "data": [
    {"compound": "COc1ccc2c(c1)C1CC1(C(=O)N1CCN3CCC[C@H]3C1)Cn1c-2c(C2CCCCC2)c2ccc(C(=O)NS(=O)(=O)C3CC3)cc21", "note": "(some centres unmarked)", "values": [
      {"measurement": "IC50", "setting": "HCV NS5B", "result": "4.58 to 500", "unit": "nM"},
      {"measurement": "EC50", "setting": "HCV replicon cells; Hepatitis C virus", "result": "4.58 to 500", "unit": "nM"}
    ]},
    {"compound": "COc1ccc2c(c1)C1CC1(C(=O)N1C[C@H]3CN(Cc4ccccc4)C[C@H]3C1)Cn1c-2c(C2CCCCC2)c2ccc(C(=O)NS(=O)(=O)N(C)C)cc21", "note": "(some centres unmarked)", "values": [
      {"measurement": "IC50", "setting": "HCV NS5B", "result": "4.58 to 500", "unit": "nM"},
      {"measurement": "EC50", "setting": "HCV replicon cells; Hepatitis C virus", "result": "4.58 to 500", "unit": "nM"}
    ]},
    {"compound": "COc1ccc2c(c1)C1CC1(C(=O)N1CCCC3CN(Cc4ccccc4)CC31)Cn1c-2c(C2CCCCC2)c2ccc(C(=O)NS(=O)(=O)N(C)C)cc21", "note": "(centres unmarked)", "values": [
      {"measurement": "IC50", "setting": "HCV NS5B", "result": "4.58 to 500", "unit": "nM"},
      {"measurement": "EC50", "setting": "HCV replicon cells; Hepatitis C virus", "result": "4.58 to 500", "unit": "nM"}
    ]},
    {"compound": "COc1ccc2c(c1)C1CC1(C(=O)N1CC3CN(Cc4ccccc4)CC3C1)Cn1c-2c(C2CCCCC2)c2ccc(C(=O)NS(N)(=O)=O)cc21", "note": "(centres unmarked)", "values": [
      {"measurement": "IC50", "setting": "HCV NS5B", "result": "4.58 to 500", "unit": "nM"},
      {"measurement": "EC50", "setting": "HCV replicon cells; Hepatitis C virus", "result": "4.58 to 500", "unit": "nM"}
    ]},
    {"compound": "COc1ccc2c(c1)[C@@H]1C[C@]1(C(=O)N1CC3CCCN(C(C)=O)C3C1)Cn1c-2c(C2CCCCC2)c2ccc(C(=O)NS(=O)(=O)N(C)C)cc21", "note": "(some centres unmarked) [drawing 73]", "values": [
      {"measurement": "IC50", "setting": "HCV NS5B", "result": "4.58 to 500", "unit": "nM"},
      {"measurement": "EC50", "setting": "HCV replicon cells", "result": "4.58 to 500", "unit": "nM"}
    ]},
    {"compound": "COc1ccc2c(c1)C1CC1(C(=O)N1CC3CCCN(C)C3C1)Cn1c-2c(C2CCCCC2)c2ccc(C(=O)NS(=O)(=O)N(C)C)cc21", "note": "(centres unmarked)", "values": [
      {"measurement": "IC50", "setting": "HCV NS5B", "result": "4.58 to 500", "unit": "nM"},
      {"measurement": "EC50", "setting": "HCV replicon cells; Hepatitis C virus", "result": "4.58 to 500", "unit": "nM"}
    ]},
    {"compound": "COc1ccc2c(c1)C1CC1(C(=O)N1CCC[C@H]3CN(C(C)=O)C[C@H]31)Cn1c-2c(C2CCCCC2)c2ccc(C(=O)NS(=O)(=O)N(C)C)cc21", "note": "(some centres unmarked)", "values": [
      {"measurement": "IC50", "setting": "HCV NS5B", "result": "4.58 to 500", "unit": "nM"},
      {"measurement": "EC50", "setting": "HCV replicon cells; Hepatitis C virus", "result": "4.58 to 500", "unit": "nM"}
    ]},
    {"compound": "COc1ccc2c(c1)C1CC1(C(=O)N1CC3CNCC3C1)Cn1c-2c(C2CCCCC2)c2ccc(C(=O)NS(N)(=O)=O)cc21", "note": "(centres unmarked)", "values": [
      {"measurement": "IC50", "setting": "HCV NS5B", "result": "4.58 to 500", "unit": "nM"},
      {"measurement": "EC50", "setting": "HCV replicon cells; Hepatitis C virus", "result": "> 500", "unit": "nM"}
    ]},
    {"compound": "COc1ccc2c(c1)C1CC1(C(=O)N1CC3CCCNC3C1)Cn1c-2c(C2CCCCC2)c2ccc(C(=O)NS(=O)(=O)C3CC3)cc21", "note": "(centres unmarked)", "values": [
      {"measurement": "IC50", "setting": "HCV NS5B", "result": "4.58 to 500", "unit": "nM"},
      {"measurement": "EC50", "setting": "HCV replicon cells; Hepatitis C virus", "result": "4.58 to 500", "unit": "nM"}
    ]},
    {"compound": "COc1ccc2c(c1)C1CC1(C(=O)N1CCC[C@H]3CN(Cc4ccccc4)C[C@H]31)Cn1c-2c(C2CCCCC2)c2ccc(C(=O)NS(=O)(=O)C3CC3)cc21", "note": "(some centres unmarked)", "values": [
      {"measurement": "IC50", "setting": "HCV NS5B", "result": "4.58 to 500", "unit": "nM"},
      {"measurement": "EC50", "setting": "HCV replicon cells; Hepatitis C virus", "result": "4.58 to 500", "unit": "nM"}
    ]},
    {"compound": "COc1ccc2c(c1)C1CC1(C(=O)N1CC3CCCN(C(C)=O)C3C1)Cn1c-2c(C2CCCCC2)c2ccc(C(=O)NS(=O)(=O)C3CC3)cc21", "note": "(centres unmarked) [drawing 67]", "values": [
      {"measurement": "IC50", "setting": "HCV NS5B", "result": "4.58 to 500", "unit": "nM"},
      {"measurement": "EC50", "setting": "HCV replicon cells; Hepatitis C virus", "result": "4.58 to 500", "unit": "nM"}
    ]},
    {"compound": "COc1ccc2c(c1)[C@@H]1C[C@]1(C(=O)N1CCN3CCC[C@@H]3C1)Cn1c-2c(C2CCCCC2)c2ccc(C(=O)NS(=O)(=O)N(C)C)cc21", "values": [
      {"measurement": "IC50", "setting": "HCV NS5B", "result": "4.58 to 500", "unit": "nM"},
      {"measurement": "EC50", "setting": "HCV replicon cells; Hepatitis C virus", "result": "4.58 to 500", "unit": "nM"}
    ]},
    {"compound": "COc1ccc2c(c1)C1CC1(C(=O)N1CCN3CCC[C@@H]3C1)Cn1c-2c(C2CCCCC2)c2ccc(C(=O)NS(=O)(=O)N3CCOCC3)cc21", "note": "(some centres unmarked)", "values": [
      {"measurement": "IC50", "setting": "HCV NS5B", "result": "4.58 to 500", "unit": "nM"},
      {"measurement": "EC50", "setting": "HCV replicon cells; Hepatitis C virus", "result": "4.58 to 500", "unit": "nM"}
    ]}
  ]
}
